Experimental data published in PubChem BioAssay (NCI).
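How tested: cells in 96-well plates exposed to compound for 48 hours at five concentrations. GI50: concentration for 50% inhibition of growth. TGI is the concentration that stops growth completely.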

Tests used:
Experiment in all cases: DTP human tumour cell line panel, 48 h
SW-620 colon = tested on: SW-620 colon
EKVX NSCLC = tested on: EKVX NSCLC
K-562 leukemia = tested on: K-562 leukemia
LOX IMVI melanoma = tested on: LOX IMVI melanoma
NCI-H23 lung = tested on: NCI-H23 lung
CAKI-1 renal = tested on: CAKI-1 renal
IGROV1 ovarian = tested on: IGROV1 ovarian
NCI-H522 lung = tested on: NCI-H522 lung
HL-60(TB) leukemia = tested on: HL-60(TB) leukemia
MDA-MB-435 = tested on: MDA-MB-435

Compound	TGI (SW-620 colon) [µM]	TGI (EKVX NSCLC) [µM]	TGI (K-562 leukemia) [µM]	TGI (LOX IMVI melanoma) [µM]	TGI (NCI-H23 lung) [µM]	TGI (CAKI-1 renal) [µM]	TGI (IGROV1 ovarian) [µM]	TGI (NCI-H522 lung) [µM]	TGI (HL-60(TB) leukemia) [µM]	GI50 (SW-620 colon) [µM]	GI50 (K-562 leukemia) [µM]	GI50 (LOX IMVI melanoma) [µM]	GI50 (NCI-H23 lung) [µM]	GI50 (HL-60(TB) leukemia) [µM]	GI50 (CAKI-1 renal) [µM]	GI50 (IGROV1 ovarian) [µM]	GI50 (NCI-H522 lung) [µM]	GI50 (MDA-MB-435) [µM]	TGI (MDA-MB-435) [µM]	GI50 (EKVX NSCLC) [µM]
C=C1C(=O)O[C@H](c2ccoc2)C[C@@H]1[C@@]1(C)CCCC2(C)C(=O)OCC21 (some centres not stated)	> 100	> 100	> 100	> 100	> 100	> 100	> 100	> 100												
CC(=O)OCC1OC(n2cccnc2=O)C(OC(C)=O)C1OC(C)=O (configuration not stated)	> 100	> 100	> 100	> 100		> 100		> 100	> 100											
CCOC(=O)C1=C(C)NC(=O)NC1c1ccc(OC)cc1OC (configuration not stated)	> 100	> 100	> 100	> 100	> 100	> 100	> 100	> 100	> 100											
CCCCC(=O)N(c1ccc(Nc2c3ccccc3nc3cc([N+](=O)[O-])ccc23)cc1)S(C)(=O)=O	31		> 47.4	17.4	42.5	> 51.9	> 45.8	16	> 69.7	5.73	5.16	3.05	12.6	12.9	7.03	6.86	3.93	18.2	> 93.1	
O=C(Nc1nc(-c2ccc(Cl)cc2)cs1)c1cc(O)c(O)c(O)c1	> 5000		> 5000	810	3030	660	939	138	907	168	167	174	292	176	115	183	21.4	266	2980	
CC1OC(n2cc(C(F)(F)F)c(=O)[nH]c2=O)C=CC1=O (configuration not stated)	35.9		> 100	33	33		39.9	32.5	41.2											
COC(=O)C1=CC2C(=O)OC1C1C(=O)NC(=O)C21 (configuration not stated)	> 100		> 100	> 100	> 100	> 100	> 100	> 100	> 100											
CC(=O)[CH-]C(=O)c1ccccc1.CC(=O)[CH-]C(=O)c1ccccc1.Cl.[O-]c1ccnc2ccccc12.[O-]c1ccnc2ccccc12.[Ti+4]	> 100	> 100	> 100	> 100	> 100	> 100	> 100	> 100	> 100	> 100	> 100	> 100	> 100	> 100	48.7	> 100	> 100			> 100
CC1(C)C(=O)OC(n2cc(F)c(=O)[nH]c2=O)C1=O (configuration not stated)	> 100	> 100	> 100	> 100	> 100			> 100	> 100											
C[C@@H](Nc1cc(F)cc(F)c1)c1cc(C(=O)N(C)C)cc2c(=O)cc(N3CCOCC3)oc12	> 100		> 100	> 100	> 100	> 100	11.1	> 100	> 57.6	25.1	67.2	8.72	> 87	2.17	9.44	0.73	20.8	8.17	> 100	
Cc1cccc(NC(=O)C(=O)C(C2OC(=O)c3ccccc32)[N+](=O)[O-])c1C (configuration not stated)	20.9	46.3	39.7	6.26	18.9	24.2	27.7	4.2	6.94											
O=C(/C=C/c1ccc(Cl)c(Cl)c1)c1ccccc1Cl	9.16	31.4	19.4	27.7	26.9	24.2	24.2	24.1	16.7											
COc1ccc(OC)c(Nc2nc3nonc3nc2Nc2cccc(Br)c2)c1	> 100		17.5	> 100	5.49	15.2	42.5	0.775	5.9	0.86	0.556	1.93	0.41	0.702	0.811	2.87	0.254	0.538	> 100	
c1ccc(C2=NOC3C4CCC(C4)C23)cc1 (configuration not stated)	> 100	> 100	> 100		> 100	> 100	> 100	> 100	> 100											
COc1ccc(Cn2cc(COc3cc(/C=C/C(=O)c4cc(OC)c(OC)c(OC)c4)ccc3OC)nn2)cc1	> 100		> 100	> 100	> 100	> 100	> 100	4.18	35.1	3.63	3.13	3.22	31.3	4.55	5.68	4.14	1.69	2.86	> 100	
CC(=O)OC1CCC2OOC1O2 (configuration not stated)	> 100	> 100	> 100	> 100	> 100	> 100	> 100	> 100	> 100											
Cc1ccc(N)cc1[As]=[As]c1cc(N)ccc1C (configuration not stated)	3.2		> 100	2.88	3.58	2.86	4.18	0.268	5.8	1.27	0.341	1.47	1.7	2.01	1.5	1.88	0.122	1.62	3.25	
Cc1ccc(S(=O)(=O)OCOS(=O)(=O)c2ccc(C)cc2)cc1	> 100	> 100	> 100	> 100	> 100		> 100	> 100	> 100											
O=C(Nc1ccncc1)C(=O)c1cn(S(=O)(=O)c2cccc(Cl)c2)c2ccccc12	> 100	> 100	> 100	> 100	> 100	39.9	> 100	16.9	> 100	4.74	2.5	4.72	4.65	3.94	3.38	24.1	2.41			5.16
CCOC(=O)C1=C(OC(OCC)C([Se]c2ccccc2)C(C)C)CCC1 (configuration not stated)		46.7	> 100	6.93	22.3	> 100	52.4	20.2	11.2											

Compound	TGI (SW-620 colon) [µM]	TGI (EKVX NSCLC) [µM]	TGI (K-562 leukemia) [µM]	TGI (LOX IMVI melanoma) [µM]	TGI (NCI-H23 lung) [µM]	TGI (CAKI-1 renal) [µM]	TGI (IGROV1 ovarian) [µM]	TGI (NCI-H522 lung) [µM]	TGI (HL-60(TB) leukemia) [µM]	GI50 (SW-620 colon) [µM]	GI50 (K-562 leukemia) [µM]	GI50 (LOX IMVI melanoma) [µM]	GI50 (NCI-H23 lung) [µM]	GI50 (HL-60(TB) leukemia) [µM]	GI50 (CAKI-1 renal) [µM]	GI50 (IGROV1 ovarian) [µM]	GI50 (NCI-H522 lung) [µM]	GI50 (MDA-MB-435) [µM]	TGI (MDA-MB-435) [µM]	GI50 (EKVX NSCLC) [µM]
N#C/C(=C\c1c(O)cc(O)cc1O)C(N)=O	> 100	> 100	> 100	> 100	> 100	> 100		> 100	> 100											
COc1cc(C(=O)/C=C/c2cc(-c3ccc4c(c3)OCO4)n[nH]2)cc(OC)c1OC	3.8		> 100		10.3	5.65	5.72	3.41	6.49	1.62	2.17		2.9	2.17	1.99	1.99	1.59	2.28	5.8	
CCC12C=CCN(CCc3c([nH]c4ccccc34)/C=C\1)C2 (configuration not stated)	> 100	> 100	> 100	> 100	> 100	> 100	> 100	> 100	> 100											
O=C1/C(=C\c2ccc(F)cc2)CN(C(=O)c2ccccc2F)C/C1=C\c1ccc(F)cc1	1.73			0.957	4.91	9.16	3.62	3.15	4.57	0.428	0.414	0.28	2.09	1.11	2.65	1.82	1.61	0.547	2.06	
CN(C)NC(=O)/C(=C/c1ccc(Cl)cc1)NC(=O)c1ccccc1		> 100	> 100	> 100	> 100	> 100	> 100	> 100	> 100											
CC(=Nc1ccc(N(C)C)cc1)c1ccccc1	39.7	> 100	74.7		> 100	34	75.3	40.8	43.9											
O=C(NC1CC1)c1c(O)[nH]c(=S)[nH]c1=O	> 100		> 100	> 100	> 100	> 100	> 100	> 100	> 100											
COC(=O)c1c(O)ccc(O)c1C(C(C)=O)C(C)=O	> 100	> 100	> 100	> 100	> 100	> 100	> 100	> 100	> 100											
CCOC(=O)c1cc(=O)n(C)c(=O)n1C	> 100	> 100	> 100	> 100	> 100	> 100	> 100	> 100												
Cc1ccccc1NC(=O)Cc1nc2ccccc2s1	36	35.1	38.7	30.5	27.8	36.8		29.3	62											
Nc1cccc2c1-c1c(cccc1[N+](=O)[O-])C2=O	> 100	> 100	> 100	> 100	> 100	> 100	> 100	> 100	> 100											
Cn1[nH]cc2ccc3nc4ccccc4c(=O)c3c21	> 100	> 100	> 100	46.5	53.4	86.5	> 100	64.9	90.8											
Cc1ccc(C[As+](c2ccccc2)(c2ccccc2)c2ccccc2)cc1	> 38.1		21.9	6.85	9.36	43.9	25.1	8.38	1.48	0.99	0.466	1.41	1.02	0.286	8.85	1.17	0.649	0.552	6.34	
C/C=C/C(=O)Oc1cccc2cccnc12	38.5	> 81.3	> 100	> 84.6	29	93.8	> 94.7	5.15	> 33.8											
COC(=O)[C@H](Cc1cn(C)cn1)NC(=O)[C@H](CC(=O)OCc1ccccc1)NC(=O)Nc1cc(C(F)(F)F)cc(C(F)(F)F)c1	21.1		15.7	8.9	30.7	27.8	29.2	21.4	27.1	6.66	4.15	2.96	15.8	12.3	14.1	14.5	8.53	5.9	18.8	
CN(C)NC1=C([N+](=O)[O-])C=NN(c2ccccc2)C1	3.67	3.52	6.15	3.11	3.42	3.64	3.9	0.343	4.62											
O=C(O)c1ccc2c(c1)C(=O)N(c1ccc(S(=O)(=O)c3ccc(N4C(=O)c5ccc(C(=O)O)cc5C4=O)cc3)cc1)C2=O	> 100	> 100	> 100	> 100	> 100	> 100		> 100	> 100											
O=c1nc2sc3ccccc3c(=O)n2[nH]1	> 100	> 100	> 100	> 100	> 100	> 100	> 100		> 100											
COc1ccc(CN2C(=O)[C@@H]3Cc4c(OC)c(C)c(OC)c(OC)c4[C@H](/C2=C\c2cc(OC)c(OC)c(C)c2OC)N3C(=O)OC(C)C)cc1	> 100	> 100	> 100	> 100	> 100	> 100	> 100	> 100	> 100											
